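Values below derive from 48-hour exposures of cells grown in 96-well plates, with endpoints linearly interpolated between the two concentrations bracketing the appropriate inhibition level. GI50 = concentration required for 50% inhibition of growth. TGI is the concentration that stops growth completely.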
System: HL-60(TB) leukemia
Assay: NCI anticancer screen, dose series, 48 h

Structure (SMILES)	TGI [µM]
COc1ccc(OCC(=O)O)c2c1CCCC2=O	> 100
Cc1nc(Nc2ccc(Cl)cc2)sc1C(=O)NNC(=S)NN	50.2
COc1ccc2c(c1OCC(=O)O)C(=O)C(CCC(=O)O)CC2 (stereo unspecified)	> 100
COC1C(OC(=S)Nc2ccccc2)c2ccccc2N1C(C)=O (stereo unspecified)	> 100
O=C(Nc1cccc(Cl)c1)C(=O)C(C(=O)c1ccc2ccccc2c1)C1OC(=O)c2ccccc21 (stereo unspecified)	40.7
CC1=Cc2cccc(C)c2C(=O)C1=O	1.37
Cc1ccc(C)c(NC(=O)c2cccc([N+](=O)[O-])c2O)c1	> 100
COCC(OC)C(CC=C(C#N)C#N)OC (stereo unspecified)	> 100
On1c(-c2ccccc2)c(-c2ccccc2N2CCCC2)c2ccccc21	> 100
N#CC(C(=O)/C(=N\NC(N)=O)C(C#N)c1ccc(Cl)cc1)c1ccc(Cl)cc1 (stereo unspecified)	> 100
CC(C)(C)c1cc(C(P(=O)(O)O)P(=O)(O)O)cc(C(C)(C)C)c1O	> 100
CC(C)C1=Cc2ccc3c(c2C(=O)C1=O)CCCC3(C)C	> 100
COc1c(O)c2c(=O)cc3c4c5c(cc(=O)c6c(O)c(OC)c(CC(C)O)c(c(c1CC(C)O)c24)c65)OCO3 (stereo unspecified)	5.1
COc1ccc(CCN(C)C2CCC(C#N)(c3ccc(OC)c(OC)c3)CC2)cc1OC (stereo unspecified)	> 100
CCOC(=O)c1nc2c(OC)nn(O)cc-2c1[N+](=O)[O-]	46.4
C/C(CC(=O)Nc1ccc(C)c(C)c1)=N\N(c1ccccc1)c1ccccc1	> 100
COC(=O)/C(=N\NC(N)=S)C(C(=O)OC)C(=O)C(=O)Nc1ccc(C)cc1 (stereo unspecified)	> 100
O=C(OC1CCC(=C2SCCCS2)[C@H]1C1SCCCS1)c1ccccc1 (stereo partly specified)	> 100
O=C1CCC2(c3ccc(Cl)cc3)Nc3cc(Cl)ccc3N12 (stereo unspecified)	12
O=C(/C(=C/c1ccc(Cl)cc1)c1ccccc1)c1ccccc1	66.5
CC1(C)COC(c2cccc3c2C(=O)c2cccc(Cl)c2-3)=N1	> 100
CN(C)CCC(/C=C/c1ccccc1)=N\Nc1ccccc1	4.28
CCOC(=O)c1ccc(/C(C)=N/NC(N)=S)cc1	> 100
c1ccc2c(OCCSCCCCCCCCCCSCCOc3cccc4ccccc34)cccc2c1	> 100
CN1CCC(=O)/C(=C/c2ccccc2)C1	41.5

System: MCF7 breast
Assay: NCI anticancer screen, dose series, 48 h

Structure (SMILES)	GI50 [µM]	TGI [µM]
COc1ccc(-c2nnc3n(C)c(=O)c4ccccc4n23)cc1N	0.043	> 100
Cc1nc(Nc2cccnc2)sc1C(=O)/C=C/c1ccc(F)cc1	2.29	> 100

System: RPMI-8226 leukemia
Assay: NCI anticancer screen, dose series, 48 h

Structure (SMILES)	TGI [µM]	GI50 [µM]
COC(=O)C(=Cc1cc(OC)c(OC)c(OC)c1-c1cc2c(cc1C1(C)OCCS1)OCO2)C(=O)OC (stereo unspecified)	> 100	–
C#CC1/C(=C\C(=O)OC)CCCC1O (stereo unspecified)	> 100	–
CC12CCC(=O)C[C@H]1CCC(OC=O)C2Br (stereo partly specified)	> 100	–
COc1ccc(-c2nnc3n(C)c(=O)c4ccccc4n23)cc1N	> 100	3.88
COc1ccc(OCC(=O)O)c2c1CCCC2=O	> 100	–
Cc1nc(Nc2ccc(Cl)cc2)sc1C(=O)NNC(=S)NN	79.5	–
COc1ccc2c(c1OCC(=O)O)C(=O)C(CCC(=O)O)CC2 (stereo unspecified)	> 100	–
Cc1ccc2nc(/C(=C/c3ccc(/C=C(\NC(=O)c4ccccc4)c4nc5ccc(C)cc5[nH]4)c(C)c3)NC(=O)c3ccccc3)[nH]c2c1	80.9	–
COC1C(OC(=S)Nc2ccccc2)c2ccccc2N1C(C)=O (stereo unspecified)	> 100	–
Cc1nc(Nc2cccnc2)sc1C(=O)/C=C/c1ccc(F)cc1	15.2	2.69
O=C(Nc1cccc(Cl)c1)C(=O)C(C(=O)c1ccc2ccccc2c1)C1OC(=O)c2ccccc21 (stereo unspecified)	44	–
CC1=Cc2cccc(C)c2C(=O)C1=O	4.36	–
Cc1ccc(C)c(NC(=O)c2cccc([N+](=O)[O-])c2O)c1	> 100	–
COCC(OC)C(CC=C(C#N)C#N)OC (stereo unspecified)	> 100	–
On1c(-c2ccccc2)c(-c2ccccc2N2CCCC2)c2ccccc21	> 100	–
N#CC(C(=O)/C(=N\NC(N)=O)C(C#N)c1ccc(Cl)cc1)c1ccc(Cl)cc1 (stereo unspecified)	> 100	–
CC(C)(C)c1cc(C(P(=O)(O)O)P(=O)(O)O)cc(C(C)(C)C)c1O	> 100	–

Structure (SMILES)	TGI [µM]	GI50 [µM]
CC(C)C1=Cc2ccc3c(c2C(=O)C1=O)CCCC3(C)C	5.17	–
CSc1nc(SC)c2c(C#N)[nH]nc2n1	> 100	–
COc1c(O)c2c(=O)cc3c4c5c(cc(=O)c6c(O)c(OC)c(CC(C)O)c(c(c1CC(C)O)c24)c65)OCO3 (stereo unspecified)	12	–
COc1ccc(CCN(C)C2CCC(C#N)(c3ccc(OC)c(OC)c3)CC2)cc1OC (stereo unspecified)	> 100	–
CCOC(=O)c1nc2c(OC)nn(O)cc-2c1[N+](=O)[O-]	56.2	–
C/C(CC(=O)Nc1ccc(C)c(C)c1)=N\N(c1ccccc1)c1ccccc1	> 100	–
COC(=O)/C(=N\NC(N)=S)C(C(=O)OC)C(=O)C(=O)Nc1ccc(C)cc1 (stereo unspecified)	> 100	–
O=C(OC1CCC(=C2SCCCS2)[C@H]1C1SCCCS1)c1ccccc1 (stereo partly specified)	> 100	–
O=C1CCC2(c3ccc(Cl)cc3)Nc3cc(Cl)ccc3N12 (stereo unspecified)	> 100	–
O=C(/C(=C/c1ccc(Cl)cc1)c1ccccc1)c1ccccc1	45.4	–
CC1(C)COC(c2cccc3c2C(=O)c2cccc(Cl)c2-3)=N1	> 100	–
CN(C)CCC(/C=C/c1ccccc1)=N\Nc1ccccc1	8.52	–
CCOC(=O)c1ccc(/C(C)=N/NC(N)=S)cc1	> 100	–
c1ccc2c(OCCSCCCCCCCCCCSCCOc3cccc4ccccc34)cccc2c1	> 100	–
Cc1cc2c(=O)c3ccccc3[nH]c2c(C(N)=O)c1C	> 100	–
CN1CCC(=O)/C(=C/c2ccccc2)C1	15.7	–

System: SK-MEL-28 melanoma
Assay: NCI anticancer screen, dose series, 48 h

Structure (SMILES)	TGI [µM]	GI50 [µM]
COC(=O)C(=Cc1cc(OC)c(OC)c(OC)c1-c1cc2c(cc1C1(C)OCCS1)OCO2)C(=O)OC (stereo unspecified)	> 100	–
CC12CCC(=O)C[C@H]1CCC(OC=O)C2Br (stereo partly specified)	> 100	–
COc1ccc(OCC(=O)O)c2c1CCCC2=O	> 100	–
Cc1nc(Nc2ccc(Cl)cc2)sc1C(=O)NNC(=S)NN	35	–
COc1ccc2c(c1OCC(=O)O)C(=O)C(CCC(=O)O)CC2 (stereo unspecified)	> 100	–
Cc1ccc2nc(/C(=C/c3ccc(/C=C(\NC(=O)c4ccccc4)c4nc5ccc(C)cc5[nH]4)c(C)c3)NC(=O)c3ccccc3)[nH]c2c1	44.1	–
COC1C(OC(=S)Nc2ccccc2)c2ccccc2N1C(C)=O (stereo unspecified)	> 100	–
Cc1nc(Nc2cccnc2)sc1C(=O)/C=C/c1ccc(F)cc1	21.4	3.72
O=C(Nc1cccc(Cl)c1)C(=O)C(C(=O)c1ccc2ccccc2c1)C1OC(=O)c2ccccc21 (stereo unspecified)	25.8	–
CC1=Cc2cccc(C)c2C(=O)C1=O	31.5	–
Cc1ccc(C)c(NC(=O)c2cccc([N+](=O)[O-])c2O)c1	> 100	–

— PubChem BioAssay (NCI)
